Tests used:
[1] = Plasma protein binding in human; format: ADME, cell-free; settings: read-out: PPB (converted)
[2] = Plasma protein binding in Wistar rat; format: ADME, cell-free; settings: read-out: PPB (converted)
Liver microsomes = assay: Intrinsic clearance in Wistar rat liver microsomes at 2 uM; format: ADME, Microsome
Liver = assay: Intrinsic clearance in Wistar rat hepatocytes at 2 uM; format: ADME, cell-based, Hepatocyte
[3] = Clearance in Wistar rat; format: ADME, organism-based; settings: in vivo
Rattus norvegicus [4] = organism: Rattus norvegicus; assay: Hepatic blood flow in Wistar rat; format: ADME, organism-based, Liver
[5] = Volume of distribution in rat at 1 and 5 mg/kg, iv administered as bolus dose; format: ADME, organism-based; parameters: dose 5 mg/kg, route intravenous; settings: in vivo
[6] = Half-life in rat at 1 and 5 mg/kg, iv administered as bolus dose; format: ADME, organism-based; parameters: dose 5 mg/kg, route intravenous; settings: in vivo
Rattus norvegicus [7] = assay: Hepatic blood flow in rat at 1 and 5 mg/kg, iv administered as bolus dose; format: ADME, organism-based, Liver; parameters: dose 5 mg/kg, route intravenous; settings: in vivo
[8] = AUC (infinity) in Wistar rat at 6 mg/kg, iv administered as a single bolus dose; format: ADME, organism-based; parameters: time infinity, dose 6 mg/kg, route intravenous; settings: plasma
[9] = Initial plasma concentration in Wistar rat at 6 mg/kg, iv administered as a single bolus dose; format: ADME, organism-based; parameters: dose 6 mg/kg, route intravenous
[10] = Clearance in Wistar rat at 6 mg/kg, iv administered as a single bolus dose; format: ADME, organism-based; parameters: dose 6 mg/kg, route intravenous; settings: in vivo
[11] = Volume of distribution at steady state in Wistar rat at 6 mg/kg, iv administered as a single bolus dose; format: ADME, organism-based; parameters: dose 6 mg/kg, route intravenous; settings: in vivo, read-out: Vdss
[12] = Drug level in fiber in Hans Wistar rat hollow fiber model implanted with human COLO205 cells at 6 mg/kg, iv after 24 hrs; format: ADME, organism-based, COLO 205; parameters: dose 6 mg/kg, route intravenous; settings: read-out: Drug uptake
[13] = Plasma concentration in Hans Wistar rat hollow fiber model implanted with human COLO205 cells at 6 mg/kg, iv after 24 hrs; format: ADME, organism-based, COLO 205; parameters: dose 6 mg/kg, route intravenous
[14] = Binding affinity to L-type calcium channel in guinea pig ileum by radioligand displacement assay; format: tissue-based, Cavia porcellus
Cytochrome P450 2C19 = Cytochrome P450 2C19 (Homo sapiens, UniProt P33261); assay: Inhibition of human recombinant CYP2C19; format: ADME
Sequence of Cytochrome P450 2C19 (P33261 whole entry): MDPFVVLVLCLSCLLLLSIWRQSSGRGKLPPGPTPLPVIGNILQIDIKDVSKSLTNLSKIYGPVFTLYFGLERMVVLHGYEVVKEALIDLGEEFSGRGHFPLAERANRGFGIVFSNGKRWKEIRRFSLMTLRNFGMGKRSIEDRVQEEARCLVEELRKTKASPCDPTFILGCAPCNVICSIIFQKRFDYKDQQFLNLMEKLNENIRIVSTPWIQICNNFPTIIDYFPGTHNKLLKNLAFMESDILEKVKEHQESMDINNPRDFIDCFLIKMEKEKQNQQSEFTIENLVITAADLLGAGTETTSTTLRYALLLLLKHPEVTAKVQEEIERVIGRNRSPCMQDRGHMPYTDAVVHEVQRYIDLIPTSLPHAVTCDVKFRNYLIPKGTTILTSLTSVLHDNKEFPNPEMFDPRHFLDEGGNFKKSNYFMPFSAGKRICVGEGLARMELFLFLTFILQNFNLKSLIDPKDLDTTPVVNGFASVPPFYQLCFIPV

[15] = biological target: T1, Kinesin-like protein KIF11 (Homo sapiens, UniProt P52732); assay: Inhibition of human recombinant C-terminal His6-tagged KSP ATPase activity after 1 hr by malachite green assay
T1 sequence (P52732 whole entry): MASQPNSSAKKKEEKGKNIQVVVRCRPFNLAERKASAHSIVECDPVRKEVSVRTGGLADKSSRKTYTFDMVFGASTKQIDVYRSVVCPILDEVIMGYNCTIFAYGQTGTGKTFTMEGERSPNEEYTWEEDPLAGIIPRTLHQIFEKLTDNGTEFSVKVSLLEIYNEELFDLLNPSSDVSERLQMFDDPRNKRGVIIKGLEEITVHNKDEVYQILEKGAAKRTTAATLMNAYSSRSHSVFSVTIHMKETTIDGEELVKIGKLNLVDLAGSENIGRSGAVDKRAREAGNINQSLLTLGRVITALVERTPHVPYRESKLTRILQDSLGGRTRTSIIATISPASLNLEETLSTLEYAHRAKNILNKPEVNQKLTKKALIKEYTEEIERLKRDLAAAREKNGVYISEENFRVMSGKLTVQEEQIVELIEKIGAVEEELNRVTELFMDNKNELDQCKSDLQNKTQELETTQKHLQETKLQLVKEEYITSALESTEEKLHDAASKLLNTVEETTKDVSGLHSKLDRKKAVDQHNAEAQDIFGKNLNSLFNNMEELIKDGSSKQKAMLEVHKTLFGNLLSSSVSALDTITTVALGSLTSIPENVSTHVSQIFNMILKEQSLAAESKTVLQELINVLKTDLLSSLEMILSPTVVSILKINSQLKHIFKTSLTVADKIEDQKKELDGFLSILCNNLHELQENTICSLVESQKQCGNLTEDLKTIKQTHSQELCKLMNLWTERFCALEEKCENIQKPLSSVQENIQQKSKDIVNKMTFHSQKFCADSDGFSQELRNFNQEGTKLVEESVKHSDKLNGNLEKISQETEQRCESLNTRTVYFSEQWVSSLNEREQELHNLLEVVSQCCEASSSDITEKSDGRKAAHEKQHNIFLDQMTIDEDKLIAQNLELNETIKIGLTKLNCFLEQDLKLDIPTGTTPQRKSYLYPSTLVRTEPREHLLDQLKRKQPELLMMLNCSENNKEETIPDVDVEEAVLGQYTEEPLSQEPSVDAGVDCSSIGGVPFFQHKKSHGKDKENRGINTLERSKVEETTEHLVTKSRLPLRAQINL

COLO 205 = assay: Anticancer activity against human COLO205 cells after 72 hrs by MTS/PMS assay; format: functional, cell-based; settings: colo 205
[16] = Clearance in nude mouse; format: ADME, organism-based; settings: in vivo
Cytochrome P450 1A2 = biological target: T2, Cytochrome P450 1A2 (Homo sapiens, UniProt P05177); assay: Inhibition of human recombinant CYP1A2; format: ADME
T2 sequence (P05177 whole entry): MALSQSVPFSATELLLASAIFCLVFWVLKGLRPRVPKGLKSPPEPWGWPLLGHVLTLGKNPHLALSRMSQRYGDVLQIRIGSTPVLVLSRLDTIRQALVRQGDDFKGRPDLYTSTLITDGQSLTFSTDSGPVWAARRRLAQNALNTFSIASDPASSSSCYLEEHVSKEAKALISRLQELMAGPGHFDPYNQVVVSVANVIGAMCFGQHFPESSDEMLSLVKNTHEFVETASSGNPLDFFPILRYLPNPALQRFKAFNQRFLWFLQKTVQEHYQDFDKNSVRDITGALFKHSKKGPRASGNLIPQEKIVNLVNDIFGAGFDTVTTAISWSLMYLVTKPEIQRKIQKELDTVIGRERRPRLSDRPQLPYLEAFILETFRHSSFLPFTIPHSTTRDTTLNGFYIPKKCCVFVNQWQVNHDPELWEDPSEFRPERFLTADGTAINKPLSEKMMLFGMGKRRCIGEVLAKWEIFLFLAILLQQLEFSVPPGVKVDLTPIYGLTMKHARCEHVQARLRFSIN

Cytochrome P450 2C9 = Cytochrome P450 2C9 (Homo sapiens, UniProt P11712); assay: Inhibition of human recombinant CYP2C9; format: ADME
Sequence of Cytochrome P450 2C9 (P11712 whole entry): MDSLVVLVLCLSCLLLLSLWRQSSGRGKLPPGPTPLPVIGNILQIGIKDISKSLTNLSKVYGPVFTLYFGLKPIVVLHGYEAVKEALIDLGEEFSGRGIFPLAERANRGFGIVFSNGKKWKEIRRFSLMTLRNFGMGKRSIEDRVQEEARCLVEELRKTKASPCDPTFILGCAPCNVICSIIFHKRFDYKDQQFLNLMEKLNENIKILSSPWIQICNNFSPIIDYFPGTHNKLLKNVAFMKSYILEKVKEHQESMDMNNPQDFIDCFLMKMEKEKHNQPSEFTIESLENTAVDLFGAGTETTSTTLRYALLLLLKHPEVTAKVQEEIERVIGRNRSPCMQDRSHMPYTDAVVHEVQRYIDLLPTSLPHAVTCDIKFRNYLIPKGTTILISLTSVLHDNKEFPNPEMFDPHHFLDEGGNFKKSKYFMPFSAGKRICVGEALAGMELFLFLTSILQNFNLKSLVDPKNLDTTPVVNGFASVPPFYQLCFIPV

Cytochrome P450 2D6 = Cytochrome P450 2D6 (Homo sapiens, UniProt P10635); assay: Inhibition of human recombinant CYP2D6; format: ADME
Sequence of Cytochrome P450 2D6 (P10635 whole entry): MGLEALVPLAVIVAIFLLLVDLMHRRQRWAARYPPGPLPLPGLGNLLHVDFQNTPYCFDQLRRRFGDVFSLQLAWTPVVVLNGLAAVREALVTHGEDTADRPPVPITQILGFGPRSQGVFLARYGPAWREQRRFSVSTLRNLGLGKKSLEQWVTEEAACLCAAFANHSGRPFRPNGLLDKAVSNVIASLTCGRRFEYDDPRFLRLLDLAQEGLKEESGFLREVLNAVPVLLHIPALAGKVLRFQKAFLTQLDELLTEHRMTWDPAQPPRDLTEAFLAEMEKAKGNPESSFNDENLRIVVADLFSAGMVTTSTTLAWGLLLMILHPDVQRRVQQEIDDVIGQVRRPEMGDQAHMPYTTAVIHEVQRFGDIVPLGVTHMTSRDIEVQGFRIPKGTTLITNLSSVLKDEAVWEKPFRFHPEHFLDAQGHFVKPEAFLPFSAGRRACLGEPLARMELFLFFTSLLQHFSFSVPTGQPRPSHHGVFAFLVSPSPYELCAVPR

Cytochrome P450 3A4 = Cytochrome P450 3A4 (Homo sapiens, UniProt P08684); assay: Inhibition of human recombinant CYP3A4; format: ADME
Sequence of Cytochrome P450 3A4 (P08684 whole entry): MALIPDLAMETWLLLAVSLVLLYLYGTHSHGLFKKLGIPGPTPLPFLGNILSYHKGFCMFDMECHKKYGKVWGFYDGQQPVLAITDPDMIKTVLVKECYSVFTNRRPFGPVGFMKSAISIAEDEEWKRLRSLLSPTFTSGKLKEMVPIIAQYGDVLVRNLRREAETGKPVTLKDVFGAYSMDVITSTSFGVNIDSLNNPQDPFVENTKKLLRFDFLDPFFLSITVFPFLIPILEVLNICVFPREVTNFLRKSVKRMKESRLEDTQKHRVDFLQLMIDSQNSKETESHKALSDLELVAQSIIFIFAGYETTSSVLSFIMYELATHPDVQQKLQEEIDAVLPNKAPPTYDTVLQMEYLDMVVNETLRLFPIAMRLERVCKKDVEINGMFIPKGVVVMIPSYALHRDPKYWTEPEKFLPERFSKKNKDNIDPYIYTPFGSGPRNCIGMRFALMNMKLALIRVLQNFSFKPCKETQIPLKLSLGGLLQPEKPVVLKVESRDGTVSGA

With `Cc1ccc(C(=O)N(CCCN)C(c2nc3snc(C)c3c(=O)n2Cc2ccccc2)C(C)C)cc1` (single isomer, unassigned; (+)) [AZD-4877] the fraction unbound [1] was 0.046, the fraction unbound [2] was 0.044 and the clearance (Liver microsomes) was less than 10 µL/min/mg. The CL (Liver) was 4 µL/min, the clearance [3] was 36 mL/min/kg and the QH (Rattus norvegicus [4]) was 52%. For the same compound, the Vd [5] was 10 L/kg, the half-life [6] was 3.5 h and the QH (Rattus norvegicus [7]) was 50%. For the same compound, the AUC(0-inf) [8] was 2840 ng·h/mL, the C0 [9] was 1080 ng/mL and the clearance [10] was 36 mL/min/kg. It also gave a Vd [11] of 10 L/kg, a concentration at 24 h [12] of 30.7 ng/mL and a concentration at 24 h [13] of 2.8 ng/mL. It also gave an IC50 [14] of 2700 nM, an IC50 (Cytochrome P450 2C19) greater than 10000 nM and an IC50 [15] of 2 nM. For the same compound, the IC50 (COLO 205) was 3 nM, the clearance [16] was 17 mL/min/kg and the IC50 (Cytochrome P450 1A2) was greater than 10000 nM. The IC50 (Cytochrome P450 2C9) was greater than 10000 nM, the IC50 (Cytochrome P450 2D6) was greater than 10000 nM and the IC50 (Cytochrome P450 3A4) was greater than 10000 nM.

From ChEMBL document CHEMBL1828558, “Discovery of (+)-N-(3-aminopropyl)-N-[1-(5-benzyl-3-methyl-4-oxo-[1,2]thiazolo[5,4-d]pyrimidin-6-yl)-2-methylpropyl]-4-methylbenzamide (AZD4877), a kinesin spindle protein inhibitor and potential anticancer agent” (J Med Chem, 2011)
